Laboratory results published in US20200093808A1, “Methods for the Administration of Certain VMAT2 Inhibitors” (Neurocrine Biosciences, Inc., priority 2017, published 2020).
Entries after “also recorded” stand apart in the source; their conditions may differ. Like-named read-outs stand apart in the source and are kept apart here. Each block holds one molecule with its values, some of them ahead of it.

Tests used:
[1] = Phase 1 open-label drug interaction study: effect of ketoconazole on the pharmacokinetics of NBI-98854 in healthy subjects; assay type: in vivo, human; settings: for half-life: read-out: t1/2 Mean (SD) (converted); for CL/F Mean (SD): analyte NBI-98854; for AUC(0-inf): read-out: AUC0-∞ Mean (SD); for Cmax: read-out: Cmax Mean (SD)
Description: All subjects received the same treatment. […] Subjects were given meals upon completion of study assessments/dosing and at regular meal times during their stay in the research unit. […] Blood specimens to determine ketoconazole plasma concentrations were collected predose through Day 9. Safety and tolerability was assessed through Day 10. […] The tmax was analyzed using non-parametric methods. […] Safety data were summarized using descriptive statistics.

human VMAT1 transporter = biological target: T1, human VMAT1 transporter (Homo sapiens, UniProt P54219); assay: Uptake in cells expressing VMAT1; assay type: cell-based; settings: concentrations up to 10 μM
T1 construct: expressed in transfected cells
T1 sequence (P54219 1-525): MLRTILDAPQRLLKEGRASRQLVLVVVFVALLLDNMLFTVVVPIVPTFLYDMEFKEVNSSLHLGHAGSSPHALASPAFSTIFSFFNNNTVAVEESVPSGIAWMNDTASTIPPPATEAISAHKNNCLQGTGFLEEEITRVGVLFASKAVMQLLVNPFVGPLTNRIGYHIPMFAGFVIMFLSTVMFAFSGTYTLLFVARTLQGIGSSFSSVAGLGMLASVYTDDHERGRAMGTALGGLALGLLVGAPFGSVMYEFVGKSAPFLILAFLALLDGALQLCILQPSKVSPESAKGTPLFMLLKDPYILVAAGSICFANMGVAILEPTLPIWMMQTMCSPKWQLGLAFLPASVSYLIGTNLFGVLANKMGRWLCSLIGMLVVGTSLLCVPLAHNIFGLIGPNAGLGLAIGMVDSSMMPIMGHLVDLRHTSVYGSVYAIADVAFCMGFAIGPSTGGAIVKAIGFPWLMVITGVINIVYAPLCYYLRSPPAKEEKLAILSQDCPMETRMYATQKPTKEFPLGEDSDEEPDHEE

[2] = test system: more than 80 targets (GPCRs, cell-surface monoamine transporters, ion channels including HERG); assay: Cerep multi-target activity screen; settings: broad panel screen
[3] = Safety and tolerability in the Phase 1 ketoconazole interaction study; assay type: in vivo; settings: for Subjects with TEAE: Constipation / Subjects with TEAE: Dizziness postural / Subjects with TEAE: Gastrointestinal Disorders / Subjects with TEAE: Headache / Subjects with TEAE: Injury, Poisoning and Procedural Complications / Subjects with TEAE: Nausea / Subjects with TEAE: Nervous System Disorders / Subjects with TEAE: Procedural dizziness / Subjects with treatment-emergent adverse event: Overall: N = 24
Description: This was a Phase 1, single-center, open-label, drug interaction study conducted in 24 healthy male and female subjects.
All subjects received the same treatment. Subjects received a single dose of 50 mg NBI-98854 on Days 1 and 6 at approximately 0800 hours. In addition, subjects received 200 mg ketoconazole twice daily (bid) on Days 5 through 9 at approximately 0800 and 2000 hours. Subjects were required to fast overnight from approximately 10 hours before until 4 hours after NBI-98854 dose on Days 1 and 6. Subjects were given meals upon completion of study assessments/dosing and at regular meal times during their stay in the research unit.
TEAEs are summarized below. There were no pretreatment AEs. […] Five subjects (20.8%) experienced 6 AEs during the study; all AEs occurred after the initial treatment with NBI-98854 alone. […] The only AE that occurred in >1 subject was headache (2 subjects, 8.3%). […] Two events were considered possibly related to study drug, 1 event of headache and the event of dizziness postural. The other event of headache was considered unlikely related to study drug.

[4] = both sexes, human, oral, analyte NBI-98854 in plasma, NBI-98854 (50 mg) alone, N = 24
[5] = both sexes, human, oral, analyte NBI-98854 in plasma, NBI-98854 (80 mg) + Ketoconazole (200 mg), N = 24
[6] = NBI-98854 (50 mg) + Ketoconazole (200 mg)

Structure (SMILES): COc1cc2c(cc1OC)[C@H]1C[C@@H](O)[C@H](CC(C)C)CN1CC2 [NBI-98782, (2R, 3R,11bR)-3-isobutyl-9,10-dimethoxy-1,3,4,6,7,11b-hexahydro-2H-pyrido[2,1-a]isoquinolin-2-ol]
- half-life ([1]; both sexes, human, plasma, oral, 50 mg): 18 h
- inhibition of uptake through VMAT1 (human VMAT1 transporter; listed as R,R,R-DHTBZ): no significant inhibitory activity; also recorded: no significant effect
- affinity for more than 80 binding sites, including receptors, monoamine transporters, and ion channels [2]: little to no affinity

- concentration at 1 h ([1]; both sexes, human, plasma, oral, 200 mg ketoconazole bid, Days 5 to 9 at 1 hour postdose, read-out: Mean plasma concentrations of ketoconazole): 1640 to 5180 ng/mL
Structure (SMILES): CC(=O)N1CCN(c2ccc(OCC3COC(Cn4ccnc4)(c4ccc(Cl)cc4Cl)O3)cc2)CC1 (centres unmarked) [Ketoconazole, ketoconazole, reference compound]

Structure (SMILES): COc1cc2c(cc1OC)[C@H]1C[C@@H](OC(=O)[C@@H](N)C(C)C)[C@H](CC(C)C)CN1CC2 [NBI-98854, (S)-2-amino-3-methyl-butyric acid (2R, 3R,11bR)-3-isobutyl-9,10-dimethoxy-1,3,4,6,7,11b-hexahydro-2H-pyrido[2,1-a]isoquinolin-2-yl ester]
- CL/F Mean (SD) ([1]; NBI-98854 (50 mg) alone, N = 24): 16.3 (5.94) L/hr
- CL/F Mean (SD) ([1]; NBI-98854 (80 mg) + Ketoconazole (200 mg), N = 24): 7.96 (2.75) L/hr
- Tlag Mean (SD) ([1]; analyte NBI-98854 in plasma, NBI-98854 (50 mg) alone, N = 24): 0.11 (0.13) hours
- Tlag Mean (SD) ([1]; analyte NBI-98854 in plasma, NBI-98854 (80 mg) + Ketoconazole (200 mg), N = 24): 0.02 (0.07) hours
- AUC(0-inf) [1, 4]: 3470 ng·h/mL
- Cmax [1, 4]: 425 ng/mL
- AUC(0-inf) [1, 5]: 7340 ng·h/mL
- Cmax [1, 5]: 624 ng/mL
- MRT ([1]; both sexes, human, oral, analyte NBI-98854 in plasma, NBI-98854 (80 mg) + Ketoconazole (200 mg), N = 24, read-out: MRT Mean (SD)): 22 h
- half-life [1, 5]: 20 h
- AUC(0-t) ([1]; both sexes, human, plasma, oral, 50 mg, analyte NBI-98854 in plasma, NBI-98854 (50 mg) alone, N = 24, read-out: AUC0-24 Mean (SD)): 2580 ng·h/mL
- AUC(0-t) ([1]; both sexes, human, plasma, oral, 50 mg, analyte NBI-98854 in plasma, NBI-98854 (50 mg) alone, N = 24, read-out: AUC0-tlast Mean (SD)): 3420 ng·h/mL
- AUC(0-t) ([1]; both sexes, human, plasma, oral, analyte NBI-98854 in plasma, NBI-98854 (80 mg) + Ketoconazole (200 mg), N = 24, read-out: AUC0-24 Mean (SD)): 4820 ng·h/mL
- AUC(0-t) ([1]; both sexes, human, plasma, oral, analyte NBI-98854 in plasma, NBI-98854 (80 mg) + Ketoconazole (200 mg), N = 24, read-out: AUC0-tlast Mean (SD)): 7100 ng·h/mL
- Subjects with headache (only AE in >1 subject) ([3]; 2 subjects): 8.3%
- Subjects with TEAE: Constipation [3, 6]: 0 n, %
- Subjects with TEAE: Dizziness postural [3, 6]: 0 n, %
- Subjects with TEAE: Gastrointestinal Disorders [3, 6]: 0 n, %
- Subjects with TEAE: Headache [3, 6]: 0 n, %
- Subjects with TEAE: Injury, Poisoning and Procedural Complications [3, 6]: 0 n, %
- Subjects with TEAE: Nausea [3, 6]: 0 n, %
- Subjects with TEAE: Nervous System Disorders [3, 6]: 0 n, %
- Subjects with TEAE: Procedural dizziness [3, 6]: 0 n, %
- Subjects with treatment-emergent adverse event: Overall [3, 6]: 0 n, %
- Subjects with TEAE: Constipation ([3]; NBI-98854 (50 mg)): 1 (4.2) n, %
- Subjects with TEAE: Dizziness postural ([3]; NBI-98854 (50 mg)): 1 (4.2) n, %
- Subjects with TEAE: Gastrointestinal Disorders ([3]; NBI-98854 (50 mg)): 2 (8.3) n, %
- Subjects with TEAE: Headache ([3]; NBI-98854 (50 mg)): 2 (8.3) n, %
- Subjects with TEAE: Injury, Poisoning and Procedural Complications ([3]; NBI-98854 (50 mg)): 1 (4.2) n, %
- Subjects with TEAE: Nausea ([3]; NBI-98854 (50 mg)): 1 (4.2) n, %
- Subjects with TEAE: Nervous System Disorders ([3]; NBI-98854 (50 mg)): 3 (12.5) n, %
- Subjects with TEAE: Procedural dizziness ([3]; NBI-98854 (50 mg)): 1 (4.2) n, %
- Subjects with treatment-emergent adverse event: Overall ([3]; NBI-98854 (50 mg)): 5 (20.8) n, %
- Tolerability ([3]; administered alone and concomitantly with ketoconazole in healthy volunteers): well tolerated
- Subjects who experienced AEs during the study ([3]; all AEs after the initial treatment with NBI-98854 alone, onset Day 1 or 2, five subjects, 6 AEs): 20.8%
- 12-lead ECGs ([3]; during the study): no abnormal ECGs that were assessed as clinically significant
- Body weight changes ([3]; during the study): no important changes in body weight
- Physical examination findings ([3]; during the study): No abnormal physical examination findings
- Vital signs including orthostatic changes ([3]; postdose): No clinically relevant postdose mean vital signs changes
- Clinical laboratory values (hematology, serum chemistry, urinalysis) ([3]; pre- and postdose): no results considered clinically significant
- Deaths, SAEs, discontinuations due to an AE ([3]; whole study): no deaths, SAEs, or discontinuations due to an AE
- Intensity of AEs ([3]; whole study): mild in intensity
- inhibition of uptake through VMAT1 (human VMAT1 transporter; listed as VBZ): no significant inhibitory activity; also recorded: no significant effect
- affinity for more than 80 binding sites, including receptors, monoamine transporters, and ion channels [2]: little to no affinity

Structure (SMILES): COC(=O)[C@H]1[C@H]2C[C@@H]3c4[nH]c5cc(OC)ccc5c4CCN3C[C@H]2C[C@@H](OC(=O)c2cc(OC)c(OC)c(OC)c2)[C@@H]1OC [reserpine, reference compound]
- inhibition of uptake through VMAT1 (human VMAT1 transporter): substantially inhibited uptake through VMAT1

Structure (SMILES): COc1cc2c(cc1OC)C1CC(=O)C(CC(C)C)CN1CC2 (centres unmarked) [TBZ, Tetrabenazine, reference compound]
- inhibition of uptake through VMAT1 (human VMAT1 transporter): no significant inhibitory activity; also recorded: no significant effect
